Article PMC6273899 (Molecules, 2016)
In brackets after ≈: the same amount, converted by molar mass. Several values for one entry are separate records, joined by “and”; a condition that tells them apart may be missing. Equal entries are not always repeated. Where two headings read alike, the source gives them in different places. Square brackets hold non-standard residues; d marks the D form. Ends that are not written are not given here. Peptide text beside a SMILES is read from it.

Columns and labels:
[1] = tested on: Candida albicans (NCPF 1467); assay type: cell-based
Method: (§1) The antimicrobial activity was evaluated by minimal inhibitory concentration (MIC) and minimum bactericidal concentration (MBC) assays using broth microdilution methods and in vitro assays against reference strains of microorganisms; a Gram-positive bacterium, a Gram-negative bacterium, and a yeast, respectively, Staphylococcus aureus (NCTC 10788), Escherichia coli (NCTC 10418), and Candida albicans (NCPF 1467). Briefly, the reference strains were incubated in Muller-Hinton Broth (MHB) until logarithmic phase growth was achieved which was assessed by the optical density (OD) of the culture at 550 nm. The cultures were subjected to dilution to obtain 1 × 10^6 colony-forming units (cfu)/mL for bacteria or to 5 × 10^5 cfu/ml for the yeast. Serial peptide dilutions and cultures were loaded into a 96-well microtiter plate obtaining suspensions containing 1–512 mg/L tested peptides. After incubating at 37 °C for 24 h, MIC values were determined as the lowest concentration which produced a similar OD value to the negative control (medium only). Then 10 μL of inhibited culture from each well was subcultured on Muller-Hinton Agar (MHA) and incubated for 24 h. The MBC values were defined as the minimum concentration which effected no growth.

[2] = tested on: Escherichia coli (NCTC 10418); assay type: cell-based
Method: as §1

[3] = tested on: Staphylococcus aureus (NCTC 10788); assay type: cell-based
Method: as §1

trypsin [4] = conditions: 1 mg trypsin with 1 mg peptide in 1 mL PBS, MALDI-TOF/MS
Method: (§2) Two different media were used to appraise the stability and degradation sites of peptides, trypsin, and horse serum, respectively. For the trypsin assay, 1 mg of trypsin (Sigma-Aldrich) with 1 mg of peptide were incubated in 1 mL PBS for 72 h. Whilst for horse serum, the medium was prepared with 25% horse serum/RPMI medium (v/v) and incubated at 37 °C for 15 min. Peptide stock solution was added into the serum medium to obtain a solution having a final concentration of 1 mg/mL and test samples were kept at 37 °C for 72 h. At different time points, 20 μL samples were transferred into 100 μL of 0.25% (v/v) TFA/water which caused reaction termination. For the serum-digestion, samples were kept at 4 °C and centrifuged at 13,000 rpm for 15 min and the supernatants were then analysed by MALDI-TOF/MS.

[5] = 25% horse serum/RPMI medium (v/v), 1 mg/mL peptide, 37 °C up to 72 h, MALDI-TOF/MS
Method: as §2

[6] = tested on: defibrinated horse erythrocytes; experiment: Haemolysis assay; assay type: cell-based; conditions: 2% (v/v) horse erythrocytes in PBS, 1 to 512 mg/L peptide, 37 °C 120 min, OD 550 nm; 100% = 1% Triton X-100
Method: The haemolytic activity of peptides against defibrinated horse erythrocytes (TCS Biosciences Ltd., Botolph Claydon, Buckingham, UK) was determined by comparing the degree of lysis after incubating tested peptides with prewashed red cell suspensions for 2 h. A 2% suspension (v/v) was formed with prewashed defibrinated horse erythrocytes and sodium phosphate-buffered saline (PBS). Peptides were incubated with this 2% suspension in a final concentration range from 1 to 512 mg/L and all the samples were kept at a constant 37 °C for 120 min. Negative controls and positive controls were PBS alone and PBS containing Triton X-100 (Sigma-Aldrich, St. Louis, MO, USA), respectively. The sample supernatants were used to assess the extent of haemolysis by measuring the OD value at 550 nm.

[7] = 25% horse serum/RPMI medium (v/v); conditions: 37 °C, up to 72 h
trypsin [8] = experiment: 1 mg of trypsin (Sigma-Aldrich) with 1 mg of peptide in 1 mL PBS; conditions: up to 72 h
[9] = 10 μL of inhibited culture subcultured on Muller-Hinton Agar, 24 h, minimum concentration with no growth
[10] = broth microdilution, Muller-Hinton Broth, 5 × 10^5 cfu/ml, 1–512 mg/L peptide, 37 °C 24 h, OD read-out, NCPF 1467
[11] = broth microdilution, Muller-Hinton Broth, 1 × 10^6 cfu/mL, 1–512 mg/L peptide, 37 °C 24 h, OD read-out, NCTC 10418
[12] = broth microdilution, Muller-Hinton Broth, 1 × 10^6 cfu/mL, 1–512 mg/L peptide, 37 °C 24 h, OD read-out, NCTC 10788

CC[C@H](C)[C@H](NC(=O)[C@H](C)NC(=O)[C@@H](CCCCN)NC(=O)[C@@H]1CCCN1C(=O)[C@@H](NC(=O)[C@H](CC(C)C)NC(=O)[C@H](CO)NC(=O)[C@H](CC(C)C)NC(=O)[C@@H](N)Cc1ccccc1)[C@@H](C)CC)C(=O)N[C@H](CCCCN)C(=O)N[C@@H](C)C(=O)N[C@H](C(=O)NCC(=O)N[C@H](C(=O)N[C@H](CCCCN)C(=O)N[C@@H](C)C(=O)N[C@H](CCCCN)C(=O)N[C@H](CCCCN)C(=O)N[C@@H](Cc1ccccc1)C(N)=O)C(C)C)C(C)C [PS-PT2a] (H-FLSLIP[dK]AI[dK]AVGV[dK]A[dK][dK]F-NH2)
MBC C. albicans [1, 9]: 256 mg/L (≈ 124 µM)
MIC C. albicans [1, 10]: 256 mg/L (≈ 124 µM)
MBC E. coli [2, 9]: >512 mg/L
MIC E. coli [2, 11]: >512 mg/L
MBC S. aureus [3, 9]: >512 mg/L
MIC S. aureus [3, 12]: >512 mg/L
Catabolites generated by incubation with trypsin (species detected, incl. intact 1–19) (trypsin [4]; up to 72 h): 1–19 FLSLIPKAIKAVGVKAKKF
time stable in trypsin solution (trypsin [4]; up to 72 h): ≥ 48 h
stability in serum (in words) ([5]; pre-incubated 37 °C 15 min): relatively stable after 72 h

CC[C@H](C)[C@H](NC(=O)[C@H](C)NC(=O)[C@@H](CCCCN)NC(=O)[C@@H]1CCCN1C(=O)[C@@H](NC(=O)[C@H](CC(C)C)NC(=O)[C@H](CO)NC(=O)[C@H](CC(C)C)NC(=O)[C@@H](N)Cc1ccccc1)[C@@H](C)CC)C(=O)N[C@@H](CCCCN)C(=O)N[C@@H](C)C(=O)N[C@H](C(=O)NCC(=O)N[C@H](C(=O)N[C@@H](CCCCN)C(=O)N[C@@H](C)C(=O)N[C@@H](CCCCN)C(=O)N[C@@H](CCCCN)C(=O)N[C@@H](Cc1ccccc1)C(N)=O)C(C)C)C(C)C [PS-PT2b] (H-FLSLIP[dK]AIKAVGVKAKKF-NH2)
MBC C. albicans [1, 9]: 64 mg/L (≈ 31.1 µM)
MIC C. albicans [1, 10]: 32 mg/L (≈ 15.6 µM)
MBC E. coli [2, 9]: 256 mg/L (≈ 124 µM)
MIC E. coli [2, 11]: 256 mg/L (≈ 124 µM)
MBC S. aureus [3, 9]: 512 mg/L (≈ 249 µM)
MIC S. aureus [3, 12]: 256 mg/L (≈ 124 µM)
degradation by trypsin (in words) (trypsin [4]; up to 72 h): hydrolytically-degraded after a 30 s incubation
scissile site with trypsin (trypsin [4]): Lys^10-Ala^11
Catabolites generated by incubation with serum (species detected, incl. intact 1–19) [5]: 1–17 […] and 1–19 FLSLIPKAIKAVGVKAKKF
incubation time in serum after which fragments 1–15, 1–14 and 1–17 were observed [5]: > 48 h
stability in serum (in words) ([5]; pre-incubated 37 °C 15 min): strong stability

FLSLIPHAIKAVGVHAKHF-NH2 [PS-PT1]
MBC C. albicans ([1]; NCPF 1467, 24 h): 256 mg/L
MIC C. albicans ([1]; NCPF 1467, 24 h): 128 mg/L
MBC E. coli ([2]; NCTC 10418, 24 h): >512 mg/L
MIC E. coli ([2]; NCTC 10418, 24 h): 512 mg/L
MBC S. aureus ([3]; NCTC 10788, 24 h): 256 mg/L
MIC S. aureus ([3]; NCTC 10788, 24 h): 128 mg/L

FLSLIPHAINAVGVHAKHF-NH2 [PS-PT]
MBC C. albicans ([1]; NCPF 1467, 24 h): >512 mg/L
MIC C. albicans ([1]; NCPF 1467, 24 h): 512 mg/L
MBC E. coli ([2]; NCTC 10418, 24 h): >512 mg/L
MIC E. coli ([2]; NCTC 10418, 24 h): >512 mg/L
MBC S. aureus ([3]; NCTC 10788, 24 h): >512 mg/L
MIC S. aureus ([3]; NCTC 10788, 24 h): 512 mg/L

FLSLIPKAIKAVGVKAKKF-NH2 [PS-PT2] [listing 1 of 2 here]
MBC C. albicans [1, 9]: 32 mg/L
MIC C. albicans [1, 10]: 16 mg/L
MBC E. coli [2, 9]: >512 mg/L
MIC E. coli [2, 11]: 512 mg/L
MBC S. aureus [3, 9]: 64 mg/L
MIC S. aureus [3, 12]: 64 mg/L
haemolytic effect (in words) [6]: negligible haemolytic effects
time in which the original peptide was completely cleaved by trypsin (trypsin [4]; up to 72 h): ≤ 30 s
scissile site with trypsin (trypsin [4]): Lys^7-Ala^8
time after which peptide was completely degraded in serum ([5]; pre-incubated 37 °C 15 min): ≤ 30 min

FLSLIPKAIKAVGVKAKKF-NH2 [PS-PT2] [listing 2 of 2 here]
cleaved bond [7]: Lys7-Ala8, major
fragment found [7]: 1–16 fragment (FLSLIPKAIKAVGVKA-), minor, 1 min
cleaved bond (trypsin [8]): Lys7-Ala8, major, 30 s
fragment found (trypsin [8]): 1–17 FLSLIPKAIKAVGVKAK, 4 min

FLSLIPKAIKAVGVKAKKF-NH2 [PS-PT2a]
fragment found [7]: 2–7 fragments (LSLIPK), minor, 4 h
not cleaved (trypsin [8]): stable in trypsin solution for up to 48 h

FLSLIPKAIKAVGVKAKKF-NH2 [PS-PT2b]
fragment found [7]: 1–17 (FLSLIPKAIKAVGVKAK), >48 h
cleaved bond (trypsin [8]): Lys10-Ala11, 30 s
